Results published in US9988370B2, “Benzisoxazole derivative salt” (RaQualia Pharma Inc., priority 2014, dated 2018).

Experiments:
[1] = Hygroscopicity study (storage at 90% RH, weighing and PXRD after five days); format: physicochemical; settings: for Water uptake after 5 days: humidity chamber at 90% RH (BaCl2-2H2O), five days; for PXRD (compared to intact bulk) / PXRD - overnight at ambient condition: after five days at 90% RH; for PXRD - overnight at ambient condition: then equilibrated at ambient temperature overnight
Method: The salt samples are weighed into aluminum crucibles, placed onto a sample holder, and stored in the humidity chamber at 90% RH (BaCl2-2H2O). The samples are visually inspected with a hand magnifying lens and weighed on an analytical balance after five days. The samples are analyzed by PXRD after five days, then allowed to equilibrate at ambient temperatures overnight and re-analyzed by PXRD to evaluate stability of suspected hydrates under ambient conditions.

[2] = Solid-state stability study under 40° C./75% RH (HPLC remaining % and purity); format: physicochemical; settings: 40° C./75% RH for 6 month; for Purity (Area %) Main peak: counterion area excluded
Method: HPLC data are obtained by Waters Alliance 2695 HPLC system with 2996 PDA detector using the following conditions; • Column: Inertsil ODS-3 (3 microm, 4.6×150 mm), • Eluent: acetonitrile/10 mM ammonium acetate=32/68, • Detection: UV at 215 nm, • Flow rate: 1 mL/min, and • Column temperature: 40° C.
Solid-state stability study is performed using Nagano Science Constant temperature/humidity control chamber LH-20-11M or LH-21-11M. The sample is placed in the chamber and exposed under 40° C./75% RH. The crystalline form and thermal behavior of the resultant sample after the exposure are evaluated by PXRD and TG/DTA, respectively. The remaining % and the purity are determined by HPLC measurement.

| Compound | Water uptake after 5 days [1] | Assay Remaining % [2] | Purity (Area %) Main peak [2] | PXRD (compared to intact bulk) [1] | PXRD - overnight at ambient condition [1] |
| --- | --- | --- | --- | --- | --- |
| O=C([O-])C1(CN2CCC(COc3noc4cccc(OCC(F)(F)F)c34)CC2)CCOCC1.[Na+] [sodium salt, 4-{[4-({[4-(2,2,2-trifluoroethoxy)-1,2-benzisoxazol-3-yl]oxy}methyl)piperidin-1-yl]methyl}tetrahydro-2H-pyran-4-carboxylic acid sodium salt] | more than 40 wt % | – | – | – | – |
| Cl.O=C(O)C1(CN2CCC(COc3noc4cccc(OCC(F)(F)F)c34)CC2)CCOCC1 [HCl-salt, 4-{[4-({[4-(2,2,2-trifluoroethoxy)-1,2-benzisoxazol-3-yl]oxy}methyl)piperidin-1-yl]methyl}tetrahydro-2H-pyran-4-carboxylic acid hydrochloride salt] | – | 97% | 98.8 Area % | same | no change |
| Cc1ccc(S(=O)(=O)O)cc1.O=C(O)C1(CN2CCC(COc3noc4cccc(OCC(F)(F)F)c34)CC2)CCOCC1 [pTSA-salt, 4-{[4-({[4-(2,2,2-trifluoroethoxy)-1,2-benzisoxazol-3-yl]oxy}methyl)piperidin-1-yl]methyl}tetrahydro-2H-pyran-4-carboxylic acid p-toluenesulfonate salt] | – | 98% | 99.7 Area % | same | no change |
| 4-{[4-({[4-(2,2,2-trifluoroethoxy)-1,2-benzisoxazol-3-yl]oxy}methyl)piperidin-1-yl]methyl}tetrahydro-2H-pyran-4-carboxylic acid hemi-ethanedisulfonate salt [EDSA-salt] | – | 99% | 100.0 Area % | same | no change |

Other lines, results leading:

| Water uptake after 5 days [1] | Assay Remaining % [2] | Purity (Area %) Main peak [2] | PXRD (compared to intact bulk) [1] | PXRD - overnight at ambient condition [1] | Compound |
| --- | --- | --- | --- | --- | --- |
| – | 99% | 99.9 Area % | same | no change | Br.O=C(O)C1(CN2CCC(COc3noc4cccc(OCC(F)(F)F)c34)CC2)CCOCC1 [HBr-salt, 4-{[4-({[4-(2,2,2-trifluoroethoxy)-1,2-benzisoxazol-3-yl]oxy}methyl)piperidin-1-yl]methyl}tetrahydro-2H-pyran-4-carboxylic acid hydrobromide salt] |
| 16.7 wt % | 87% | 95.6 Area % | different from the intact bulk | no change | O=C(O)C1(CN2CCC(COc3noc4cccc(OCC(F)(F)F)c34)CC2)CCOCC1 [Free form, 4-{[4-({[4-(2,2,2-trifluoroethoxy)-1,2-benzisoxazol-3-yl]oxy}methyl)piperidin-1-yl]methyl}tetrahydro-2H-pyran-4-carboxylic acid] |
